Activity calls are given as the source filed them. A value given as a limit tells only on which side of the number the result lay.

One assay has as its target Beta-galactosidase (Escherichia coli, UniProt Q8VNN2). It is filed as functional.
Assay [1] has as its target T1, Kappa-type opioid receptor (Homo sapiens, UniProt P41145). It is filed as functional.
Assay [2] addresses T2, Delta-type opioid receptor (Homo sapiens, UniProt P41143). In words: HTS Image-Based Screen for Antagonists of the DOR Receptor. [Related pubchem assays (depositor defined):AID1777, AID1785, AID1786, AID2133]. It is filed as functional.
Assay [3] deals with T3, Mu-type opioid receptor (Homo sapiens, UniProt P35372). As to the kind of experiment: HTS Image-Based Screen for Agonists of the MOR Receptor. [Related pubchem assays (depositor defined):AID1777, AID1785, AID1786, AID2133]. It is filed as functional.
T3 sequence (P35372 whole entry): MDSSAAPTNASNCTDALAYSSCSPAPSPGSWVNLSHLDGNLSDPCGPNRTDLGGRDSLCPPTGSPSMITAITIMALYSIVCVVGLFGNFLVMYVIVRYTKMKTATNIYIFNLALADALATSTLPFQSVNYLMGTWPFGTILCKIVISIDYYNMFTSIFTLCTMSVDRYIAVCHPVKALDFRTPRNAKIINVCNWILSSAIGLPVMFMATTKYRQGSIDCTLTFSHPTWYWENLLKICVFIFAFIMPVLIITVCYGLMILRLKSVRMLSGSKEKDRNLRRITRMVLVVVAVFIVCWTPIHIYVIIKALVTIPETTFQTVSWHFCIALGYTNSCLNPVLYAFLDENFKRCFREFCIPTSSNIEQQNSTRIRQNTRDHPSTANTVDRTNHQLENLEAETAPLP
Assay [4] addresses T2, Delta-type opioid receptor. In words: HTS Image-Based Screen for Agonists of the DOR Receptor. [Related pubchem assays (depositor defined):AID1777, AID1786, AID2133]. Format: functional.
The target in assay [5] is T1, Kappa-type opioid receptor. Format: functional. This is another data set of the same source.
The target of assay [6] is T4, Tyrosine-protein phosphatase non-receptor type 22 (Homo sapiens, UniProt Q9Y2R2). Format: functional.
T4 sequence (Q9Y2R2 whole entry): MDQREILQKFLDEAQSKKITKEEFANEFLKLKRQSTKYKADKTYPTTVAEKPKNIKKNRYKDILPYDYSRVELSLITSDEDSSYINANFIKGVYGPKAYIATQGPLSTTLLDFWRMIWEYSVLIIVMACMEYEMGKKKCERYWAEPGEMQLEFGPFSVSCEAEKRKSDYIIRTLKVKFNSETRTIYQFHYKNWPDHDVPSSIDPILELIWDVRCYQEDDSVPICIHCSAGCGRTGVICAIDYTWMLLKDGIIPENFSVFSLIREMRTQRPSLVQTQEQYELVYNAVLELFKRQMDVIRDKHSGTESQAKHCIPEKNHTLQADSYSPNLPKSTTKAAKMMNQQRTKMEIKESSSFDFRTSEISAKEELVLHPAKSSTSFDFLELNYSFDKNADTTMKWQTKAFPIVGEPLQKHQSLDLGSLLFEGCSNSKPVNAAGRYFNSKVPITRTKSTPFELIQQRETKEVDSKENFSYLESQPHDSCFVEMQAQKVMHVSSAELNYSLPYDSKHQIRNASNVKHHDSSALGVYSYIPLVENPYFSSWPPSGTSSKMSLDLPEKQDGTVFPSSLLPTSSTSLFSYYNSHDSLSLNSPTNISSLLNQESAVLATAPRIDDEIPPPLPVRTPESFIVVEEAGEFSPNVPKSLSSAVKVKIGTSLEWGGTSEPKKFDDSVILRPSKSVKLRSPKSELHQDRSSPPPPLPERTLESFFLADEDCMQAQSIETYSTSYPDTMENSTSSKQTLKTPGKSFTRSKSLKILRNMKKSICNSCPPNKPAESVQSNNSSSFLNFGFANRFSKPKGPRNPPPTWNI
In assay [7] the target is T5, Tyrosine-protein phosphatase non-receptor type 7 (Homo sapiens, UniProt P35236).
T5 sequence (P35236 whole entry): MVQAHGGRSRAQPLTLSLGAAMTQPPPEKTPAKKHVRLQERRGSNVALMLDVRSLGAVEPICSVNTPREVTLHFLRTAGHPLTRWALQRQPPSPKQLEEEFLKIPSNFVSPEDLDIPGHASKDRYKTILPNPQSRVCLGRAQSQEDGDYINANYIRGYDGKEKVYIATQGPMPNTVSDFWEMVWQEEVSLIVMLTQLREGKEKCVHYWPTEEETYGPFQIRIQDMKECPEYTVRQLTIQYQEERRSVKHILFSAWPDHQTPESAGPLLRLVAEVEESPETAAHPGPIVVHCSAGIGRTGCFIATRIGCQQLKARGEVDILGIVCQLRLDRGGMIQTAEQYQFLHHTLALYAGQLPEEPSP
It is filed as functional.

The test system of a further assay is H4. As to the kind of experiment: Luminescence Cell-Based Dose Response HTS to Identify Activators of 5'UTR Stem-Loop Driven Prion Protein mRNA Translation in H4 Neuroglioblastoma Cells. [Related pubchem assays: 1829 (Project Summary), 1814 (Primary HTS)]. Format: functional. Particulars: Homo sapiens.
Assay [8] can be described thus: Luminescence Cell-Based Dose Response HTS to Identify Activators of Luciferase Translation or Activity in H4 […] Cells. [Related pubchem assays: 1829 (Project Summary), 1814 (Primary HTS)]. Format: functional.
Assay [9] in a line: Luminescence Cell-Based Dose Confirmation HTS to Identify Activators of 5'UTR Stem-Loop Driven Alpha-Synuclein mRNA Translation in H4 Neuroglioblastoma Cells. [Related pubchem assays: 1829 (Project Summary), 1814 (Primary HTS)]. It is filed as functional.
Assay [10] deals with T4, Tyrosine-protein phosphatase non-receptor type 22. It is filed as functional. This is another data set of the same source.
In assay [11] the target is T6, Dual specificity protein phosphatase 3 (Homo sapiens, UniProt P51452). As to the kind of experiment: VHR1 phosphatase inhibitors, primary screen, biochemical, absorbance, uHTS (AID 1654).
T6 sequence (P51452 whole entry): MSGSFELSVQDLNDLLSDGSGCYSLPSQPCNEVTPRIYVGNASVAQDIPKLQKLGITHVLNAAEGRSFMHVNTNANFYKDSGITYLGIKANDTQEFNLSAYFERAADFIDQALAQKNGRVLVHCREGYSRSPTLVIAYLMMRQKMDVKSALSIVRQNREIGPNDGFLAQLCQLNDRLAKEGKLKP
For assay [12], the target named is 72 kDa type IV collagenase (Homo sapiens, UniProt P08253). As to the kind of experiment: Dose Response validation of uHTS RPN11 inhibitor hits using a MMP-2 Fluorescence assay. Format: functional.
The target of assay [13] is T6, Dual specificity protein phosphatase 3. As to the kind of experiment: VHR1 phosphatase inhibitors, biochemical (AID 1878).
Assay [14] deals with T7, SUMO-activating enzyme (Homo sapiens, UniProt Q9UBT2). As to the kind of experiment: blockers of UBC9-mediated SUMO conjugation – biochemical, AlphaScreen, SUMOylation inhibitor project, confirmation (AID 2018). It is filed as functional. For orientation: In Alpha technology, singlet oxygen from a donor bead excites a nearby acceptor bead.
T7 sequence (Q9UBE0 whole entry): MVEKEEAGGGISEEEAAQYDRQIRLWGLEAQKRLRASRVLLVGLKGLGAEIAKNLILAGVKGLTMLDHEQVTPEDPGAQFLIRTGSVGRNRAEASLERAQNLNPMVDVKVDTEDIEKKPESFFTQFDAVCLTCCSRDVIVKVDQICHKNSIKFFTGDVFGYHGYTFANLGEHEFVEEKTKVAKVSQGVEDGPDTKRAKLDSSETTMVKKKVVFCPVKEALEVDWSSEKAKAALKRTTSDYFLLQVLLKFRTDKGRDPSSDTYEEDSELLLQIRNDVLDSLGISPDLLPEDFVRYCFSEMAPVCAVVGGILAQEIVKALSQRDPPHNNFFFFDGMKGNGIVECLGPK
T7 sequence (Q9UBT2 whole entry): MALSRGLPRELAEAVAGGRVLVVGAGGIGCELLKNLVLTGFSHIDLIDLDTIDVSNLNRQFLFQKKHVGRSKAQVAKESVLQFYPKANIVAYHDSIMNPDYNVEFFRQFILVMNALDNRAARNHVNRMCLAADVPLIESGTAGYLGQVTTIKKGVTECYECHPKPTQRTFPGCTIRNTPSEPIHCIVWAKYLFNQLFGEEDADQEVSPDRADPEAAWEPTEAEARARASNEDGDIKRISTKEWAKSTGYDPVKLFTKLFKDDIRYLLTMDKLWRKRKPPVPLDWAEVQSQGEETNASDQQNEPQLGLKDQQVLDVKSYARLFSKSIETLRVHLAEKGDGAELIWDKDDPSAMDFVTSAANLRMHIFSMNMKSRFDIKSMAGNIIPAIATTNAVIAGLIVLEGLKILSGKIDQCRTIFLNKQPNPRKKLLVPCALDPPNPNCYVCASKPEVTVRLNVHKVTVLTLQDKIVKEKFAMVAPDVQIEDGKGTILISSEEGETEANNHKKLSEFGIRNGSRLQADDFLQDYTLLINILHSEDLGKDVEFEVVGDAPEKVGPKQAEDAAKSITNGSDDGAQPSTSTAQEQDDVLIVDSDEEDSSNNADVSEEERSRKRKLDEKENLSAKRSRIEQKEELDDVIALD
The next assay has as its target Prothrombin (Bos taurus, UniProt P00735). In words: thrombin protease inhibitors – biochemical, fluorescence polarization, uHTS hits, dose response (AID 602369). It is filed as functional. On the technique in general: Polarisation of emitted light reports the rotation of a fluorescent probe.
Assay [15] deals with T8, Small ubiquitin-related modifier 1 (Homo sapiens, UniProt P63165). As to the kind of experiment: SUMO1 protein-protein binding blockers, potency – biochemical, FRET, dose response (AID 624383). Particulars: read-out: IC50_Mean. Format: functional.
T8 sequence (P63165 whole entry): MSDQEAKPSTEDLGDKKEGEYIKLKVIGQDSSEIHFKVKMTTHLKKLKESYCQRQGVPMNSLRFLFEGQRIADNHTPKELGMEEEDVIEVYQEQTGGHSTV
Assay [16] concerns the target T8, Small ubiquitin-related modifier 1. As to the kind of experiment: SUMO1 protein interaction blockers, potency – biochemical, fluorescence polarization, uHTS hits, dose response (AID 624382). Particulars: read-out: IC50_Mean. Format: functional.
Assay [17] concerns the target 26S proteasome non-ATPase regulatory subunit 14 (Homo sapiens, UniProt O00487). As to the kind of experiment: inhibition of proteasome subunit RPN11 – biochemical, fluorescence polarization, uHTS hits, confirmation (AID 602368). Format: functional.
In assay [18] the target is T9, Dual specificity protein phosphatase 6 (Rattus norvegicus, UniProt Q64346).
T9 sequence (Q64346 whole entry): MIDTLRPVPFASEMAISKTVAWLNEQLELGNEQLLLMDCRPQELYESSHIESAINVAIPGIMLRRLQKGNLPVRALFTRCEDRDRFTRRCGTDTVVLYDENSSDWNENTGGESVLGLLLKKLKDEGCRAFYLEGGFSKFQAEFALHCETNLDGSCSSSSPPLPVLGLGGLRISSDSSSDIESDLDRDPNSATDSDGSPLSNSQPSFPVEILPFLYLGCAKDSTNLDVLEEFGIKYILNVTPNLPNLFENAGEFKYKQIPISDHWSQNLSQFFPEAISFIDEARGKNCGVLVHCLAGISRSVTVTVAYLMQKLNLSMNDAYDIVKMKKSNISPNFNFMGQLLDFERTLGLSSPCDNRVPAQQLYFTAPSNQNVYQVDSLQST
In words: inhibition of rat DUSP6 enzyme activity – biochemical, in vitro, primary screen (AID 425).

Assay [19] addresses T7, SUMO-activating enzyme. In words: blockers of SAE1/SAE2–UBC9 SUMO transfer – biochemical, HTRF, uHTS, primary screen (AID 2006). Format: protein-complex assay.
Assay [20] concerns the target T10, Nucleotide-binding oligomerization domain-containing protein 2 (Homo sapiens, UniProt Q9HC29). In words: PubChem AID 2334. It is filed as functional.
The subject of assay [21] is HEK293. In words: cells. It is filed as functional, cell-based. Particulars: Homo sapiens.
Assay [22] concerns HEK293. As to the kind of experiment: cells. Particulars: Homo sapiens.
Assay [23] deals with T11, Tumor necrosis factor (Homo sapiens, UniProt P01375). As to the kind of experiment: analog potency on TNFa NF-kB signaling – cell-based, set 3, SAR follow-up (AID 2801). It is filed as functional.
T11 sequence (P01375 whole entry): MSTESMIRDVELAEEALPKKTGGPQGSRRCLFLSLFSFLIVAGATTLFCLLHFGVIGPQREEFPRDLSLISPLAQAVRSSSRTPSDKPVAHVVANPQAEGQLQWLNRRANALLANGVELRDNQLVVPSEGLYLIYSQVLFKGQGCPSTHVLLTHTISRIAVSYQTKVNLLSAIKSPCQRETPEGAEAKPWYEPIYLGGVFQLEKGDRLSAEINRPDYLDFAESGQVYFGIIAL
For assay [24], the system named is HEK293. In words: cells. Format: functional, cell-based. Particulars: Homo sapiens. This is another data set of the same source.
Assay [25] has as its target T10, Nucleotide-binding oligomerization domain-containing protein 2. In words: inhibition of MDP-driven NOD2 NF-kB reporter – cell-based, set 3, SAR follow-up (AID 2799). Format: functional.
For assay [26] the target is unchanged. As to the kind of experiment: inhibition of NOD2 signaling – set 2, SAR follow-up (AID 2475). Format: functional.
Assay [27] has as its target T11, Tumor necrosis factor. As to the kind of experiment: analog potency on TNFa NF-kB signaling – cell-based, revised, SAR follow-up (AID 2337). It is filed as functional.
The subject of assay [28] is HEK293. As to the kind of experiment: SAR analysis of compounds that are cytotoxic to HEK293 - Set 3. [Related pubchem assays (depositor defined):AID1575, AID1578, AID1848, AID1849, AID2001, AID2333, AID2334, AID2335, AID2337, AID2469]. Particulars: Homo sapiens. Format: functional, cell-based.
Assay [29] concerns HEK293. As to the kind of experiment: SAR analysis of compounds that are cytotoxic to HEK293 - Set 2. [Related pubchem assays (depositor defined):AID1575, AID1578, AID1849, AID2001, AID2333, AID2334, AID2335, AID2337, AID2800]. It is filed as functional, cell-based. Particulars: Homo sapiens.
Assay [30] relates to HEK293. As to the kind of experiment: NOD2 signaling inhibitors in MDP-stimulated cells, cell-based, uHTS, luminescence (AID 2001). Particulars: Homo sapiens. Format: functional.
In assay [31] the target is T1, Kappa-type opioid receptor. As to the kind of experiment: kappa opioid receptor activation by imaging – image-based, set 3, SAR follow-up (AID 488833). Format: functional.
In assay [32] the target is T2, Delta-type opioid receptor. In words: SAR Analysis of Agonists of the DOR Receptor using an Image-Based Assay - Set 3. [Related pubchem assays (depositor defined):AID1777, AID1786]. Format: functional.
Assay [33] addresses T1, Kappa-type opioid receptor. In words: SAR analysis of small molecule agonists of the kappa opioid receptor via a luminescent beta-arrestin assay - Set 3. [Related pubchem assays (depositor defined):AID1777, AID1785, AID1786, AID1966, AID2133, AID2136, AID2284, AID2500]. It is filed as functional.
In assay [34] the target is T3, Mu-type opioid receptor. In words: SAR Analysis of Agonists of the MOR Receptor using an Image-Based Assay - Set 3. [Related pubchem assays (depositor defined):AID1777, AID1785, AID1786, AID1966, AID2133, AID2136, AID2284, AID2285, AID2352]. It is filed as functional.

T1 sequence (P41145 whole entry): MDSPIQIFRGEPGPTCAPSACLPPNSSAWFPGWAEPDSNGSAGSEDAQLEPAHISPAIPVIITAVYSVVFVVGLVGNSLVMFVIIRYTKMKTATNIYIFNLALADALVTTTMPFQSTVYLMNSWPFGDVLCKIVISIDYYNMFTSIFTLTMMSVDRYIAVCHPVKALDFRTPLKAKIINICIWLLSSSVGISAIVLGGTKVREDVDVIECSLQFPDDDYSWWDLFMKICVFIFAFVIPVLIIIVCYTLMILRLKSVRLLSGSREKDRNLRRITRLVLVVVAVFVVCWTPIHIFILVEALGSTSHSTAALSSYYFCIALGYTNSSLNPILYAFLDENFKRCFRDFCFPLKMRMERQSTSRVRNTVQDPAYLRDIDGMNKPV
T2 sequence (P41143 whole entry): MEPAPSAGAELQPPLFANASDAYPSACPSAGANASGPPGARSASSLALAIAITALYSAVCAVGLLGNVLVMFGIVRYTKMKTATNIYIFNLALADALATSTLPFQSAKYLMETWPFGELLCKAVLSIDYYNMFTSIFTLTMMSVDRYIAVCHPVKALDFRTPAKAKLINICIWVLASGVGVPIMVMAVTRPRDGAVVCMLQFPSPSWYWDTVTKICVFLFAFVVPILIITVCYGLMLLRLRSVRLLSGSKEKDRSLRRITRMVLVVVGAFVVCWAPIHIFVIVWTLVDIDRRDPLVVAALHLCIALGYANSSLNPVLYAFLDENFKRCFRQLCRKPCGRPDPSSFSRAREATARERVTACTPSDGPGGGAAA
T10 sequence (Q9HC29 whole entry, the tested form may be a part): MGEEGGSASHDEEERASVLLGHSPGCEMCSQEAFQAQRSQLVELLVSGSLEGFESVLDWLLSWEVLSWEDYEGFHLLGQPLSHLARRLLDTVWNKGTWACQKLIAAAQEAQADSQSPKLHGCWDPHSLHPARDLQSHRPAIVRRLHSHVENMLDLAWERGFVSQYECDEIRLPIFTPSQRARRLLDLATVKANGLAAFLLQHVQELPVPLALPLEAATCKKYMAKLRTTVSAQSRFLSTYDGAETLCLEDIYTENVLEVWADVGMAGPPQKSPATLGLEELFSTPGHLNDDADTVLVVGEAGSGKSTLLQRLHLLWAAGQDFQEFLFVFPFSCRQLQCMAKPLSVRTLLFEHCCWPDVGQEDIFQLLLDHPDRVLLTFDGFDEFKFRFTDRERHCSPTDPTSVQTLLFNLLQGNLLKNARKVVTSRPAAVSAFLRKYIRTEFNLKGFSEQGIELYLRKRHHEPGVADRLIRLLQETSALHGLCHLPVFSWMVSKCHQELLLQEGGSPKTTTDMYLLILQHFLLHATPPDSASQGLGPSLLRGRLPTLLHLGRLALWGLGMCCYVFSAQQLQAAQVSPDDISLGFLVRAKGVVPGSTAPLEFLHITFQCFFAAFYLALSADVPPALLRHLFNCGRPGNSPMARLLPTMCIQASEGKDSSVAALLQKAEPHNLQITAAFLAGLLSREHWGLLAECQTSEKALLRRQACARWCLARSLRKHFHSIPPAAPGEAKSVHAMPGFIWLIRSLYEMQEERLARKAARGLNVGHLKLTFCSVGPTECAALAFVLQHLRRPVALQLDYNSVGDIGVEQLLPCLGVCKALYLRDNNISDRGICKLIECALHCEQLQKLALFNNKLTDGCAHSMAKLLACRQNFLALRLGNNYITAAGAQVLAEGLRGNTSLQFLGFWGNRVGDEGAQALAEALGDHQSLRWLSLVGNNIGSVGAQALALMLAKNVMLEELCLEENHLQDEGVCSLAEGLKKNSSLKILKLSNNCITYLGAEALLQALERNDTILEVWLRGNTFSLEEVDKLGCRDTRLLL
26S proteasome non-ATPase regulatory subunit 14, sequence (O00487 whole entry): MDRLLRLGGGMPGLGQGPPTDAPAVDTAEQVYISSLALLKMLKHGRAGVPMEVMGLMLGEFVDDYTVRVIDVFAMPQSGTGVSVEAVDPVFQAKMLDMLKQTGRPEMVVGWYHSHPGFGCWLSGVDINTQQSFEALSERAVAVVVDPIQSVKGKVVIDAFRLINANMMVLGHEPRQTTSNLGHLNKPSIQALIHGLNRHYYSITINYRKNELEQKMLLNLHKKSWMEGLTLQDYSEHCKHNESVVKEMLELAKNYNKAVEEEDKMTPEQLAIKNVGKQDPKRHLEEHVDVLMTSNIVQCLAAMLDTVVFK

Broadly, the EC50 is the concentration that produces a half-maximal response. In the case of `Cc1nc(-c2ccccn2)[nH]c(=S)c1Cl`, the values for the EC50 (at Beta-galactosidase; on Mu-type opioid receptor [3]; in [4]) were > 31.5 µM (inactive), > 32 µM (inactive) and > 32 µM (inactive), respectively. In addition, the IC50 in assay [1] was above 32 µM; in [2], > 32 µM (inactive); in assay [5], 20.3 µM (inactive).

Regarding `O=C1C2C(C(=O)N1/N=C/c1cccc([N+](=O)[O-])c1)C1C=CC2C12CC2` (configuration not stated), the IC50 in assay [6], in assay [7] and in assay [10] was > 79.4 µM (inactive) each time. In addition, the values for the EC50 (in the assay with H4; in assay [8]; in [9]) were 87.7 µM (active), 7.44 µM (active) and 15.4 µM (active), respectively.

With `O=C(CSc1nnc(SCc2ccc(Cl)cc2)s1)N/N=C/c1c[nH]c2ccccc12`, the IC50 was 16.2 µM (active) in assay [11]; > 100 µM (inactive) in assay [12]; 3.82 µM (active) in assay [13]; 1.54 µM (active) on SUMO-activating enzyme [14]; 82.5 µM (active) on Prothrombin; 2.02 µM (active) in assay [15]. Further, the IC50 was > 66.6 µM (inactive) in [16], 9.99 µM (active) in assay [17], 76.5 µM (active) in assay [18] and 48.3 µM (active) on SUMO-activating enzyme [19].

Regarding `Cc1ccc(S(=O)(=O)n2c(N)nc3ccccc32)cc1`, the IC50 (in [20]; in the assay on HEK293 [21]; in the assay with HEK293 [22]; on Tumor necrosis factor [23]; in the assay with HEK293 [24]; in assay [25]) was > 20 µM (inactive) throughout. Further, the IC50 (in assay [26]; at Tumor necrosis factor [27]; in the assay with HEK293 [28]; with HEK293 [29]; with HEK293 [30]) was > 20 µM (inactive) in each case.

For the compound `FC(F)(F)c1ccc(CSc2nnc(-c3ccccn3)n2Cc2cccs2)cc1`, the EC50 in [31] is 0.621 µM (active); in [32] it was > 32 µM (inactive); in assay [33], 1.23 µM (active); at Mu-type opioid receptor [34] it was > 32 µM (inactive).

These data come from ChEMBL document CHEMBL1201862, “PubChem BioAssay data set” (2004).
